Source: patent US20220088031A1, “METHODS AND COMPOSITIONS FOR TREATING RESISTANT AND RECURRENT FORMS OF CANCER” (Health Research, Inc., priority 2019, published 2022)

What was measured:
E006AA cells [1] = test: Caspase-3 (DEVDase) activity assay; assay type: cell-based, human
Experimental: (§1) Caspase-3 (DEVDase) activity assay: PCa cell lysates prepared in NP40 lysis buffer were incubated with DEVD-AFC (caspase-3 substrate) at 37° C. for 90 min in caspase activity assay buffer (50 mM HEPES pH 7.4, 150 mM NaCl, 1% CHAPS, 1 mM EDTA, 1 mM DTT, 50% glycerol). Fluorescence intensity was detected using a Synergy microplate reader at excitation and emission wavelengths of 400 nm and 508 nm, respectively. Arbitrary fluorescence units were normalized with protein content of cell lysates and represented as fold change compared to control groups.

[2] = test system: Nrf1 binding with CC promoter in E006AA cells; test: Chromatin immunoprecipitation (ChIP) assay, Nrf1 binding with CC promoter; assay type: cell-based, human
Experimental: Chromatin immunoprecipitation (ChIP) assay: The association of Nrf1 transcription factor with CYCS promoter within the LNCaP and E006AA cells was detected using a chromatin immunoprecipitation (ChIP) Assay Kit (Millipore, Billerica, Mass.; Cat #17-295) according to the manufacturer's instructions. In brief, 1 million cells were fixed in formaldehyde for 15 min and chromatin was sheared using Bioruptor sonication device for 10 min in ice with 30 sec on/off cycle (Diagenode, Denville, N.J.). Ten μ1 sonicated samples (of 2 ml total volume) were separated as input. Chromatin was immunoprecipitated with 1.0 μg of Nrf1 or normal rabbit IgG (Santa Cruz Biotechnology) antibody at 4° C. overnight. Each sample (5 μl) was used as a template for PCR amplification and 20 μl of the 50 μl PCR product was loaded onto agarose gels. CYCS oligonucleotide sequence encompasses the CYCS promoter segment that includes the Nrf1 binding sites for PCR primers viz 5′-[…]-3′ [SEQ ID:7] and 5′-[…]-3′ [SEQ ID:8]. PCR mixtures were amplified for 1 cycle at 94° C. for 5 min followed by 35 cycles at 94° C. for 30 s, 55° C. for 30 s and 72° C. for 30 s, and then subjected to final elongation at 72° C. for 10 min. PCR products were run on 2% agarose gel and analyzed using ethidium bromide staining.

[3] = test system: CC promoter activity in E006AA cells; test: Cytochrome c (CYCS) promoter reporter (luciferase) assay; assay type: cell-based, human; settings: CYCS-Luc transfected cells, 24 hrs
Experimental: Cytochrome c (CYCS) promoter reporter assay: CYCS promoter reporter clone and empty pLightSwitch vector were purchased from SwitchGear Genomics, Menlo Park, Calif. (Cat #S721763). The reporter construct was prepared by cloning −1000 bp of CYCS promoter from the transcription initiation site. Plasmids were transformed in DH5a E. Coli strain and were isolated using a Zymo Plasmid MidiPrep kit (Zymo research, cat #D4200). The Nrf1 binding site in the p-CYCS-SwichGear-Luc construct was deleted using a QuickChange II XL site-directed mutagenesis kit (Agilent Technologies, Wilmington, Del. Cat #200521). LNCaP and E006AA cells were seeded in 96 well plates and transfected with either pLightSwitch empty vector or CYCS promoter reporter clones using a lipofectamine 3000 transfection kit (ThermoFisher Scientific, Waltham, Mass.). Cells were harvested after 48 hrs. Luciferase activity assay was performed using LightSwitch Assay Reagent (SwitchGear Genomics, Menlo Park, Calif. Cat #LS010).

[4] = test system: p-Drp1^S616 in E006AA cells; test: Immunoblot analysis of p-Drp1^S616 and Drp1; assay type: cell-based, human; settings: AA PCa cells; c-Myc I 75 μM, NF-κB I 50 μM, AKT Act 5 μM
Experimental: (§2) Immunoblotting: Immunoblotting was performed as described previously. Protein lysates were prepared using a lysis in NP-40 buffer (50 mM Tris-HCl pH 7.4, 150 mM NaCl, 1 mM EDTA, 1 mM EGTA, 1% NP-40) supplemented with protease and phosphatase inhibitor cocktail. Protein content was quantified using a micro BCA protein estimation kit (Thermo Scientific, Waltham, Mass.; Cat #23235). Protein samples were resolved on 4-20% Criterion gels, transferred on nitrocellulose membranes (BioRad, Hercules, Calif.) and subjected to immunoblotting. Membranes were blocked in 5% fat free dry milk (Blotto, Santa Cruz, Dallas, Tex.; Cat #sc-2324) prepared in PBS-T (Tween-20) and incubated overnight in primary antibodies (1:1000 dilution) at 4° C. with continuous shaking. After washing with PBS-T, membranes were incubated in HRP conjugated anti-mouse or anti-rabbit secondary antibody at room temperature for 1 hr. After washing with PBS-T, proteins were detected using Clarity chemiluminescent reagent (BioRad, Hercules, Calif.; Cat #1705061) and X-Ray films (ASI, Fort Lauderdale, Fla.; Cat #XR1570). Membranes were stripped using stripping buffer and probed with HRP conjugated beta-actin antibody to ensure equal loading of proteins.

E006AA hT xenografts = test: Human PCa xenograft study; assay type: in vivo, SCID mice; settings: 3 weeks
Excerpt: Human PCa xenograft study: SCID (C.B-Igh-1^b/IcrTac-Prkdc^[…]) mice (6 weeks old) were purchased from an in house colony maintained by Roswell Park Laboratory Animal Shared Resource. Animal protocols were approved by the Roswell Park Institutional Animal Care and Use Committee (IACUC protocol #1306M). E006AA hT cells (80% confluency) were harvested and live cells quantified. Harvested cells were washed and resuspended in serum-free DMEM/F-12 (1:1) mix. Four ×10^6 E006AA hT cells were mixed with Matrigel (1:1) and injected subcutaneously in the right and left flanks of each mouse. When xenograft tumors reached 5 mm in diameter (22 days post injection), mice were randomly divided into 6 groups of 4 mice. First group received 100 μl Neobee M5 oil (vehicle) and 100 μl normal saline each twice weekly. Second group received 100 μl Neobee M5 oil and DOC (6 mg/kg bw) twice weekly. Third group received 10058-F4 (20 mg/kg bw) and DOC (6 mg/kg bw) twice weekly. Fourth group received JSH-23 (3 mg/kg bw) and DOC (6 mg/kg bw) twice weekly. Fifth group received 10058-F4 (20 mg/kg bw) and normal saline twice weekly. Sixth group received JSH-23 (3 mg/kg bw) and normal saline twice weekly. All treatments were administered for 3 weeks. Mice were euthanized, tumors were excised and flash frozen in liquid nitrogen. The tissue lysates were used for caspase-3 activity and Western blotting of CC, cleaved PARP, and cleaved caspase-3 proteins.
as §2, §1

E006AA cells [5] = test: Mitochondrial ROS production, MitoSOX dye, flow cytometry; assay type: cell-based, human
[6] = combined treatment with DOC (24 hrs)
[7] = in combination with DOC (6 mg/kg bw) twice weekly
[8] = inhibitor alone, 10058-F4 20 mg/kg bw or JSH-23 3 mg/kg bw twice weekly

Compound | caspase-3 activation (E006AA cells [1]; agent alone) | caspase-3 activation (E006AA cells [1]; [6]) | binding of Nrf1 to the CC promoter ([2]; agent alone) | binding of Nrf1 to the CC promoter ([2]; combined with DOC (24 hrs)) | CYCS promoter activity (luciferase) [3] | levels of p-Drp1^S616 [4] | CC expression in xenografts (E006AA hT xenografts; [7]) | PARP cleavage in xenografts (E006AA hT xenografts; [7]) | caspase-3 activation in xenografts (E006AA hT xenografts; [7]) | CC expression in xenografts (E006AA hT xenografts; [8]) | MitoROS production (E006AA cells [5]; agent alone) | MitoROS production (E006AA cells [5]; in combination with DOC)
CCc1ccc(/C=C2/SC(=S)NC2=O)cc1 [c-Myc inhibitor, 10058-F4] | only a modest increase | increased caspase-3 activation | enhanced binding of Nrf1 to the CC promoter | enhanced binding of Nrf1 to the CC promoter | increased the CYCS promoter activity | increased the levels of p-Drp1^S616 | further upregulated | PARP cleavage | caspase-3 activation | induced CC expression |  | 
bisperoxovanadium 5-hydroxipyridine [AKT activator] | only a modest increase | increased caspase-3 activation | enhanced binding of Nrf1 to the CC promoter | enhanced binding of Nrf1 to the CC promoter | increased the CYCS promoter activity | increased the levels of p-Drp1^S616 |  |  |  |  | MitoROS production | MitoROS production
Cc1ccc(NCCCc2ccccc2)c(N)c1 [NF-κB inhibitor, JSH-23] | only a modest increase | increased caspase-3 activation | enhanced binding of Nrf1 to the CC promoter | enhanced binding of Nrf1 to the CC promoter | increased the CYCS promoter activity | increased the levels of p-Drp1^S616 | further upregulated | PARP cleavage | caspase-3 activation | induced CC expression | MitoROS production | MitoROS production
